Measured values from patent US8859235B2, “Methods in cell cultures, and related inventions, employing certain additives” (priority 2009, dated 2014).

Columns and labels:
[1] = system: E. coli JM109; assay: Growth and GFPuv expression in E. coli JM109, shake flask cultivation in mineral medium; assay type: cell-based, Escherichia coli; settings: Experiment 2, additive 5 mM, 20 h, mean of two
Procedure: Precultures are prepared in 250 mL baffled shake flasks containing 25 mL sterile mineral medium [macronutrients in g/L: Glycerol (25), (NH4)2-citrate (1.0), Na2HPO4 2H2O (9.0), KH2PO4 (1.82), NH4Cl (1.52), MgSO4 (0.12), (NH4)2SO4 (0.6); Ampicillin ([…]); micronutrients in mg/L: Na2-EDTA (8.4), thiamine (4.5), Fe(III) citrate (12.5), Na2MoO4 2×H2O (2.5), H3BO3 (3), CoCl2 6×H2O (2.5), CuSO4 5×H2O (0.45) MnCl24×H2O (15), ZnCl2 (8) adjusted to pH 7.0]. Cultures are inoculated with 250 μL of a glycerol stock stored at −80° C. of E. coli JM109 (Promega Inc, Wallisellen, C H; Genotype: endA1, recA1, gyrA96, thi, hsdR17 (rk^−, mk^+), re/A1, supE44, Δ(lac-proAB), [F″ traD36, proAB, laql^qZΔM15]) harboring the plasmid pBAD-GFPuv (Biorad Inc., Reinach, C H; Genbank U62637.1, containing the GFPuv gene under control of the ara promoter; GFP=Green Fluorescent Protein). Precultures are incubated at 37° C. for 10-12 h.
Experimental cultures are performed in a volume of 25 mL of the above described medium in 250 mL baffled shake flasks. Stabilizers according to the invention are added to a final concentration of 5 mM as indicated from sterile stock solutions. Cultures are started by inoculating with the preculture to an optical density at 600 nm (OD600) of 0.25. Growth of the culture is monitored by reading optical density at 600 nm. Cultures are induced by adding L-arabinose to a final concentration of 0.2% (w/v) when the OD600 reaches 0.5. Samples of 1 mL are taken 6 and 20 h after induction for OD600 reading and GFP quantification. For GFP quantification 1 mL of the culture is harvested after 2-4 h and after 20 h after induction. Cells are collected by centrifugation at 16 000 g and the cell pellet is stored at −20° C. for further analysis.
(§1) The measurement of GFP expression by whole cell fluorescence measurements follows the procedure of Scholz et al. (Eur. J. Biochem., 2000,267, 1565-1570). Frozen cell pellets are thawed, resuspended in 1 mL PBS [NaCl (8 g/L), KCl (0.2), of Na2HPO4 (1.44), KH2PO4 (0.24), adjusted to pH 7.4] and subsequently diluted to an optical density of 0.1. GFP fluorescence of whole cells is measured in a Eclipse Fluorometer (Varian) with an excitation wavelength of 400 nm and an emission wavelength of 512 nm. Specific relative fluorescence [RFU/OD600] is calculated by dividing the relative fluorescence emmision units by the optical density of the suspension at 600 nm.

[2] = system: E. coli JM109; assay: Growth and GFP expression in high cell density fedbatch cultivation of E. coli JM109 in mineral medium; assay type: cell-based, Escherichia coli; settings: for Optical density Value / GFP expression (RFU/OD600) Value: additive 5 mM
Procedure: as §1
A first preculture of E. coli JM109 harboring the plasmid pBAD-GFPuv is initiated from glycerol stocks stored at −80° C. in 3 mL of LB medium containing 0.01% (v/v) Antifoam A (Fluka). After growth for 10-12 h it is used to seed 2×100 mL of mineral medium (as described in Example 1) containing 0.01% Antifoam A (silicone fluid containing a suspension of finely powdered silica to enhance its defoaming efficiency; Dow Corning Corporation, Midland, Mich., USA), in 1 L baffled shake flasks. After 10-12 h this culture is centrifuged resuspended in 50 mL mineral medium and is used to inoculate the main culture.
Cultivation is performed in BioFlow110 bioreactors (Total volume 2.2 L; New Brunswick Scientific, Nürtingen, Germany) filled with 1 L of mineral medium plus 0.01% (v/v) Antifoam A for the batch phase. Reactors are equipped with pH, pO2 and foam probes, mass flow controllers to control gas flow and ratio of air and pure oxygen and pumps for automated dosage of base (14% [v/v] aqueous NH3), antifoam (25% [v/v] Antifoam A) and nutrient feed solution. The agitation is set to 500 rpm and air is supplied at a gas flow rate of 2 L/min. The fedbatch culture is incoculated to an OD600 of 0.25-0.5 and allowed to grow unlimited with a specific growth rate of ˜0.5 h^−1. Growth is monitored by measuring OD600. When the disolved oxygen concentration decreases to 30%, automated adjustment of the air:oxygen ratio in the gas mix is started to control dO2 to 30% using a PID loop. When the gas mix consisted of 100% oxygen a further increase in oxygen transfer is achieved through increasing the agitation rate up to a maximum level of 1200 rpm. When glycerol in the batch medium is completely consumed, as indicated by a distinct drop of pure oxygen in the gas mix, feeding solutions (first containing 70 g/L glycerol and later as cell density increased 200 g/L glycerol in mineral medium) are pumped into the reactor by a predefined exponential fed scheme. The feeding rate is calculated to allow the cells to grow at a growth rate of approximately 0.15 h^−1. During the feeding phase dO2 is also kept at 30%. 3-6 h after starting the feeding protein expression is induced by the addition of 0.2 (w/v) L-arabinose. Samples are taken every hour for OD600 reading and to obtain cell pellets which are stored at −20° C. for further analysis. Analysis of in vivo GFP fluorescence is performed by the method described in Example 1.

[3] = Experiment 1, process time 26.75 h, relative to control = 1

Question: `CC1(C)CC(O)CC(C)(C)N1[O]` [4-Hydroxy-2,2,6,6-tetramethylpiperidin-1-oxyl] was tested. Which “Growth (Final OD600)” value ([1]; control 11.0) did it give?
Answer: Its value is 9.5 OD600.

Question: What about the “GFP expression (Relative fluorescence unit*OD600^−1)” value ([1]; control 1423) of the same compound?
Answer: The value was 7276 Relative fluorescence unit*OD600^−1.

Question: What about the “Optical density Value” ([2]; Experiment 1, process time 26.75 h, control 9.86) of the same compound?
Answer: Its value is 11.86.

Question: And the “GFP expression (RFU/OD600) Value” ([2]; Experiment 1, process time 26.75 h, control 211)?
Answer: Its value is 535 RFU/OD600.

Question: And the “GFP expression Factor” value [2, 3]?
Answer: Its value is 2.53.

Question: What about the “Optical density Factor” value [2, 3] of the same compound?
Answer: The value was 1.20.

Question: What about the “GFP expression (RFU/OD600) Value” ([2]; Experiment 2, process time 18 h, control 0) of the same compound?
Answer: The value was 190 RFU/OD600.

Question: What about the “Optical density Value” ([2]; Experiment 2, process time 18 h, control 6.67) of the same compound?
Answer: Its value is 11.42.

Question: What about the “Optical density Factor” value ([2]; Experiment 2, process time 18 h, relative to control = 1) of the same compound?
Answer: Its value is 1.7.
